Measurements as given in PMC5598064 (Cardiovascular Diabetology, 2017).
Read-outs that look alike come from different tables or passages of the source.

Columns and labels:
[1] = healthy individuals, saxagliptin 5 mg, highest recommended therapeutic dose; cited from earlier work
[2] = tested on: healthy individuals; conditions: in vivo, po
Method: (§1) Participants who were randomized to 75 or 100 mg received their second dose 30 min before consuming the high fat breakfast. Vital sign and 12-lead electrocardiogram (ECG) measurements were collected at screening, at various times throughout the study, and at discharge.

[3] = tested on: healthy individuals; conditions: for concentration-dependent effect on QTcP: in vivo
Description: (§2) In a randomized, double-blind, 4-period, 4-treatment, cross-over tQTc study, healthy individuals were randomized to one of four treatment sequence groups. […] Serial blood samples for pharmacokinetic analysis were collected on day 4 of each period.
To account for the high degree of correlation between heart rate and QT interval, various correction formulae, including Bazett’s formula (QTcB), Fridericia’s formula (QTcF), QT interval corrected for heart rate (QTc) based on linear population-based analysis (QTcP), and QT interval corrected for heart rate based on log-linear population-based analysis (QTcLogP) were applied to obtain a QT interval independent of heart rate.

[4] = tested on: healthy individuals; conditions: in vivo
Method: (§3) All doses were administered 1 h before consumption of a standard American Heart Association Step 1 diet (≤30% of calories from fats) or a standard liquid meal on days 8 and 13 (BoostPlus®; Nestlé). […] Vital sign and 12-lead ECG measurements were collected at screening, at various times throughout the study, and at discharge. Multiple blood samples for pharmacokinetic analysis were collected on days 1–2 and 14–15.

[5] = tested on: rat; conditions: in vivo, iv, 5.9 mg/kg
[6] = tested on: rabbit Purkinje fibers; conditions: mean (SEM)
[7] = tested on: rodents and non-rodents; conditions: in vivo, po
[8] = target: GABA-A α1B2γ2 (Homo sapiens, UniProt P14867+P18507+P47870); experiment: Radioligand binding, cardiovascular-related targets
[9] = tested on: dog; conditions: in vivo, iv, 5.9 mg/kg
[10] = target: T1, Adrenergic α1β (Homo sapiens, UniProt P35368); experiment: Radioligand binding, cardiovascular-related targets
T1 sequence (P35368 1-520): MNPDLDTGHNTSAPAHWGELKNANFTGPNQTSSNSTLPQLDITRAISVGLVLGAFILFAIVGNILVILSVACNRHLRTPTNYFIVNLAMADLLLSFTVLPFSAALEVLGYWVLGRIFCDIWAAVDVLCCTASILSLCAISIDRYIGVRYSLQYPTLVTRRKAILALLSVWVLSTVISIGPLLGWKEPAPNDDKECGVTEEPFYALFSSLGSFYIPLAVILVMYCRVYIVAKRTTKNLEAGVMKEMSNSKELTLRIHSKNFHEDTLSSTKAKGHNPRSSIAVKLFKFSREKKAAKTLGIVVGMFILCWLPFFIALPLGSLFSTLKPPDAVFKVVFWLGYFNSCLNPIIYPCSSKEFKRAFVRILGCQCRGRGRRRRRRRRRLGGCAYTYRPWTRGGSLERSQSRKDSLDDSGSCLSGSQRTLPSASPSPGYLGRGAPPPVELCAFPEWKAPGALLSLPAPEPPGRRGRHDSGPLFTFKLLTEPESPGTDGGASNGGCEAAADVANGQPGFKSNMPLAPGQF

[11] = target: Cardiac hNAV1.5 (Homo sapiens, UniProt Q14524); experiment: as above
[12] = tested on: healthy participants and patients with T2D; conditions: human, in vivo
Method: as §1, §3, §2
In a randomized, placebo-controlled, sequential MAD study, 40 patients with T2D were randomized to receive 2.5, 5, 15, 30, or 50 mg/day or matching placebo for 14 days. All doses were administered after consumption of a standard breakfast. […] Vital sign measurements and 12-lead ECG measurements were collected at screening, at various times throughout the study, and at discharge. Serial blood samples for pharmacokinetic analysis were collected on days 1, 7, and 14.

[13] = tested on: monkeys; conditions: monkey, in vivo
[14] = target: T2, Muscarinic M2 (Homo sapiens, UniProt P08172); experiment: Radioligand binding, cardiovascular-related targets
T2 sequence (P08172 1-466): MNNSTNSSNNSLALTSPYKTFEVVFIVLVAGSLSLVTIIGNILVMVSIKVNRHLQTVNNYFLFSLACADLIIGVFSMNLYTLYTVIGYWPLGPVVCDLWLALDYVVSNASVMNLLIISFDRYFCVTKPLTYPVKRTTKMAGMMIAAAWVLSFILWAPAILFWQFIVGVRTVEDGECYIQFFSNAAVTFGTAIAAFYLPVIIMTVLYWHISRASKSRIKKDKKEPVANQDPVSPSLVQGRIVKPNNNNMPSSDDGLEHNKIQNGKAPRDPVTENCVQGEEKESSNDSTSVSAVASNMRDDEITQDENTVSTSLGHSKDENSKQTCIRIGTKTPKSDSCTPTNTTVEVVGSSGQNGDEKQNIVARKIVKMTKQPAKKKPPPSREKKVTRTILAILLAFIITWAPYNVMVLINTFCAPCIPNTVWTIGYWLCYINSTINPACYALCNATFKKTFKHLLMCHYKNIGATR

[15] = tested on: receptors, ion channels, and enzymes; experiment: Radioligand binding panel, all targets assessed; conditions: 10 μM
[16] = target: L type Ca^2+; experiment: Radioligand binding, cardiovascular-related targets; conditions: antagonism of radioligand binding; read-out: IC50 or EC50
[17] = target: PDE (phosphodiesterase-3); experiment: as above; conditions: antagonism of radioligand binding; read-out: IC50 or EC50
[18] = tested on: dogs; conditions: dog, in vivo
[19] = target: ACE; experiment: Radioligand binding, cardiovascular-related targets
Chain of ACE (P22303 32-614, species assumed): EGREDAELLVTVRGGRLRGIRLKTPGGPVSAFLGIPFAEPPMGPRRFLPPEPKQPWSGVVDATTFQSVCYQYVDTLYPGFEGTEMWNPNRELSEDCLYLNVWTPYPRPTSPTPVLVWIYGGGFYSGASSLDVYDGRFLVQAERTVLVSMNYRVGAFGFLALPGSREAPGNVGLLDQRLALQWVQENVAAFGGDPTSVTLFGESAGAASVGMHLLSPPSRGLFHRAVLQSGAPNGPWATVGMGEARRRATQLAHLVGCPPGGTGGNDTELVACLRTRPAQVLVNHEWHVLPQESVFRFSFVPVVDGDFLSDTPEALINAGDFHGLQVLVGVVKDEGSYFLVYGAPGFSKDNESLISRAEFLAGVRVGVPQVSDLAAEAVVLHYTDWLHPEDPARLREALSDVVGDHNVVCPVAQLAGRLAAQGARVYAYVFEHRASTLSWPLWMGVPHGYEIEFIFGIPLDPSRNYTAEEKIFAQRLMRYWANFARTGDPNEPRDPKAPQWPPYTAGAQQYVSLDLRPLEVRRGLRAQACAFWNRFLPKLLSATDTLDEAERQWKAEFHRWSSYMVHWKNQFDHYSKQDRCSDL

Chain of GABA-A α1B2γ2 (P14867 28-456): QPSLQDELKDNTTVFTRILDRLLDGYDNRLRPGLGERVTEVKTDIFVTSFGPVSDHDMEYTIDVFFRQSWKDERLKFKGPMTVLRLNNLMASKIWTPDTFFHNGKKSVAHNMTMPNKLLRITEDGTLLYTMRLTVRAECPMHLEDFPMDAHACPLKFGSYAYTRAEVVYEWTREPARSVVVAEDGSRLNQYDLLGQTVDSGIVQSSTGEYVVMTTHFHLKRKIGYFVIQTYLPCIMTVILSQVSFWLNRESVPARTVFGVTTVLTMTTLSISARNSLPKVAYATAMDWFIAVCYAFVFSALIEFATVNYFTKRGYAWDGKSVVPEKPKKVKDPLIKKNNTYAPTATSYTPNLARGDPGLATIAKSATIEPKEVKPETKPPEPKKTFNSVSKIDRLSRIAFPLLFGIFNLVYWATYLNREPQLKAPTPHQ
Chain of GABA-A α1B2γ2 (P47870 25-512 limits assumed): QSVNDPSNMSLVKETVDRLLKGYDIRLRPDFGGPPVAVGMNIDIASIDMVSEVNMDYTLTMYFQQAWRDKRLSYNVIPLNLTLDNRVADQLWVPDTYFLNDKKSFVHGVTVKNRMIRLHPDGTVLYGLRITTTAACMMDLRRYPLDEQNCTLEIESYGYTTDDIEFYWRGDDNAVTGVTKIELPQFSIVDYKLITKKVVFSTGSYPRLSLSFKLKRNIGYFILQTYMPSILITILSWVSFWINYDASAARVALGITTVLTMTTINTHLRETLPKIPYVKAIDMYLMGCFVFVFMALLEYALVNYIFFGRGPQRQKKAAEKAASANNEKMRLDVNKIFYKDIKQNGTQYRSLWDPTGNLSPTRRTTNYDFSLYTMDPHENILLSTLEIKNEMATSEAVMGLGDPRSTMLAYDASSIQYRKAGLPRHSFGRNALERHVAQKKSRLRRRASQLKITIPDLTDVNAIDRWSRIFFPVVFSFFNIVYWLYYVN
Chain of GABA-A α1B2γ2 (P18507 40-475): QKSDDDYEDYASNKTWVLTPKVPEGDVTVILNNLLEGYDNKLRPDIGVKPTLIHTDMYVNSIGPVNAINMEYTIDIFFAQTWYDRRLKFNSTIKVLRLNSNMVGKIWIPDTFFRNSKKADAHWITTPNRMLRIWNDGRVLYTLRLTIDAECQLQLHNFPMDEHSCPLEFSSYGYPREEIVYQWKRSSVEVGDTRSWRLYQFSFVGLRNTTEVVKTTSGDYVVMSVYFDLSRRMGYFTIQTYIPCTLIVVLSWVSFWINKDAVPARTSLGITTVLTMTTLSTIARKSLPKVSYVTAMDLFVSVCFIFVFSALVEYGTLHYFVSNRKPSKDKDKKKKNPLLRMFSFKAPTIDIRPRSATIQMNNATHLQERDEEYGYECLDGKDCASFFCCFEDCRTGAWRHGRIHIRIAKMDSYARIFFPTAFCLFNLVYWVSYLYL
Chain of Cardiac hNAV1.5 (Q14524 whole entry): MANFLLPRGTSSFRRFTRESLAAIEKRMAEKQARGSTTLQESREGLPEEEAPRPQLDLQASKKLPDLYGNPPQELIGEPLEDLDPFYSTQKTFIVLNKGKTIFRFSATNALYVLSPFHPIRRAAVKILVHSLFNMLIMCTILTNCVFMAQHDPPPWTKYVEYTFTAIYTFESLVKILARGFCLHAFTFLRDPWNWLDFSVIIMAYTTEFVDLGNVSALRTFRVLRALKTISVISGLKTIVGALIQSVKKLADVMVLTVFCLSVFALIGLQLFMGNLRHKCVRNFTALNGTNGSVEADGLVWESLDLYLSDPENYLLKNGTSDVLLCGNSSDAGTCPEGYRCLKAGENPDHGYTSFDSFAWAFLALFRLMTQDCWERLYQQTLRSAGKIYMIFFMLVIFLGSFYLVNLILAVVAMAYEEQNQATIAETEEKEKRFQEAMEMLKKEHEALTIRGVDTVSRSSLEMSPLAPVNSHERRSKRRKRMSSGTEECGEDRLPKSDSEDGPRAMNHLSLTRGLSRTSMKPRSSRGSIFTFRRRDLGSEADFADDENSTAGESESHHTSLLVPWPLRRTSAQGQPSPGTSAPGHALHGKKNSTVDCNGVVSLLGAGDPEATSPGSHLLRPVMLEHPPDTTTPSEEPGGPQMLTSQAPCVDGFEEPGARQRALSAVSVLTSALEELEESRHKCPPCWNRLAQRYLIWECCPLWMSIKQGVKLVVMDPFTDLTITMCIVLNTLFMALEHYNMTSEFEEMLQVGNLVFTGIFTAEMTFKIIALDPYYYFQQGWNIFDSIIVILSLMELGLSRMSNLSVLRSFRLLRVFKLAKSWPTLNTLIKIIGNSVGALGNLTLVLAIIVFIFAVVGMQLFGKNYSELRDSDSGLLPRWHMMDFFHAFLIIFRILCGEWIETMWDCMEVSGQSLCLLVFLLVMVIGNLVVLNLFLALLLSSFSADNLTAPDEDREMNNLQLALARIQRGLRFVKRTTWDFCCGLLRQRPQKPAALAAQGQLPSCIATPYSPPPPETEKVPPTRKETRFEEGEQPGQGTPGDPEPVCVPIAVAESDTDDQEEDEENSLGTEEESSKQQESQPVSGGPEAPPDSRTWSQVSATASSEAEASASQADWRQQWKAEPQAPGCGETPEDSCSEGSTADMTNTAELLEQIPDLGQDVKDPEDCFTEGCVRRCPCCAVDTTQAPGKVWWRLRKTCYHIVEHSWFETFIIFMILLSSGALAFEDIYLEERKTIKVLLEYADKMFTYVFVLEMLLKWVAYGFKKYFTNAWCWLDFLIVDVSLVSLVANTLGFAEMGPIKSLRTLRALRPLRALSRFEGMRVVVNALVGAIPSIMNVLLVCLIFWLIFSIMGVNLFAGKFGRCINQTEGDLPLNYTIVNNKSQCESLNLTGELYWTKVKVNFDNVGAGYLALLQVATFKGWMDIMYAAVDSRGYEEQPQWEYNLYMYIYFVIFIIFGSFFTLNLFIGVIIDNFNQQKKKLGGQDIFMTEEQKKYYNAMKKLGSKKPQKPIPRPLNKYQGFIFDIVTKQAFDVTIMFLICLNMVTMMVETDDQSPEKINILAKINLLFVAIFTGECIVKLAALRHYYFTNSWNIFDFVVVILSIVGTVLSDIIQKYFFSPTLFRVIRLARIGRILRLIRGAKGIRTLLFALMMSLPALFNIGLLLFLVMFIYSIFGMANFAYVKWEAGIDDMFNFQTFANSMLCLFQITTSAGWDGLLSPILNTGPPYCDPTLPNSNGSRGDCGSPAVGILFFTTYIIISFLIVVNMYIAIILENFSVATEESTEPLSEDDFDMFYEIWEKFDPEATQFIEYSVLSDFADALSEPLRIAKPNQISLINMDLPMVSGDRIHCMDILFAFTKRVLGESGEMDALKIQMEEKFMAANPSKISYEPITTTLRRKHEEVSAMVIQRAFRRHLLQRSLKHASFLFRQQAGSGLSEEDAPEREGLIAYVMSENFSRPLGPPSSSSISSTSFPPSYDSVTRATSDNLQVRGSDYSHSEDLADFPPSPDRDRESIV

5-hydroxy saxagliptin
maximum plasma concentration [1]: 0.047 µg/mL
dose excreted (renal excretion) [2]: ~40%
mean renal clearance versus mean GFR [2]: did not exceed mean GFR
plasma exposures versus dose [2]: generally increased proportionally with dose
concentration-dependent effect on QTcP [3]: no concentration-dependent effect
pharmacokinetics versus dose [4]: appeared linear with respect to dose

COc1c(N2C[C@@H]3CCCN[C@@H]3C2)c(F)cc2c(=O)c(C(=O)O)cn(C3CC3)c12 [moxifloxacin]
maximum placebo-adjusted, time-matched change from baseline in QTcP ([3]; 400 mg, 4 h after dosing): 12.52 ms
one-sided lower 95% confidence bound of QTcP change at time of maximum effect ([3]; 400 mg, 4 h after dosing): 7.83 ms
individuals with QTcP change from baseline >30 ms ([3]; after treatment with placebo and moxifloxacin): 1

N#C[C@@H]1C[C@@H]2C[C@@H]2N1C(=O)[C@@H](N)C12CC3CC(CC(O)(C3)C1)C2 [saxagliptin]
adverse effects [5]: no adverse effects
dose excreted (renal excretion) ([2]; human): approximately 20%
mean renal clearance versus mean GFR [2]: exceeded mean GFR
plasma exposures versus dose [2]: generally increased proportionally with dose
APD50 ([6]; 3 μM): 149 (24) ms
APD50 % Change ([6]; 3 μM): 0 (0) %
APD90 ([6]; 3 μM): 235 (11) ms
APD90 % Change ([6]; 3 μM): 2 (1) %
Maximum upstroke velocity (Vmax) ([6]; 3 μM): 446 (15) v/s
Maximum upstroke velocity (Vmax) % Change ([6]; 3 μM): −5 (3) %
Overshoot ([6]; 3 μM): 29 (4) mV
Overshoot % Change ([6]; 3 μM): −7 (12) %
Resting Membrane Potential ([6]; 3 μM): −84 (1) mV
Resting Membrane Potential % Change ([6]; 3 μM): 0 (1) %
APD50 ([6]; 10 μM): 153 (26) ms
APD50 % Change ([6]; 10 μM): 2 (1) %
APD90 ([6]; 10 μM): 237 (14) ms
APD90 % Change ([6]; 10 μM): 2 (1) %
Maximum upstroke velocity (Vmax) ([6]; 10 μM): 462 (21) v/s
Maximum upstroke velocity (Vmax) % Change ([6]; 10 μM): −2 (3) %
Overshoot ([6]; 10 μM): 32 (4) mV
Overshoot % Change ([6]; 10 μM): 1 (11) %
Resting Membrane Potential ([6]; 10 μM): −86 (1) mV
Resting Membrane Potential % Change ([6]; 10 μM): 2 (2) %
APD50 ([6]; 30 μM): 152 (21) ms
APD50 % Change ([6]; 30 μM): 3 (4) %
APD90 ([6]; 30 μM): 239 (11) ms
APD90 % Change ([6]; 30 μM): 3 (2) %
Maximum upstroke velocity (Vmax) ([6]; 30 μM): 437 (13) v/s
Maximum upstroke velocity (Vmax) % Change ([6]; 30 μM): −7 (5) %
Overshoot ([6]; 30 μM): 29 (5) mV
Overshoot % Change ([6]; 30 μM): −7 (14) %
Resting Membrane Potential ([6]; 30 μM): −85 (2) mV
Resting Membrane Potential % Change ([6]; 30 μM): 1 (3) %
concentration-dependent effect on QTcP [3]: no concentration-dependent effect
multiples of human exposures based on AUC [7]: up to 2200 times
IC50 [8]: > 30 µM
adverse effects [9]: no adverse effects
IC50 [10]: > 30 µM
IC50 [11]: > 30 µM
effect on vital sign measurements [12]: no effect
marked abnormalities in AST [12]: No marked abnormalities
Cmax exposure multiple of Cmax at the 5 mg oral human dose ([13]; 3.4 mg/kg): 280 times
adverse effects ([13]; iv, 0.225 mg/kg): No adverse effects
decreased blood pressure (reductions) ([13]; iv, 3.4 mg/kg): < 40 mmHg
IC50 [14]: > 30 µM
inhibition on any targets assessed [15]: < 25%
IC50 [16]: > 25 µM
IC50 [17]: > 30 µM
heart weight [18]: No increase
Cmax exposure multiple of the 5 mg clinical dose ([18]; po): ≤ 750 times
IC50 [19]: > 60 µM
